Test results published in paper PMC9970268 (Cancer Research Communications, 2022).
Where two headings read alike, the source gives them in different places.

Experiments:
Rac = details: cited from earlier work
GFP-HER2-BM cells [1] = experiment: Apoptosis assay (Caspase-Glo3/7); assay type: cell-based, human; details: 500 nmol/L, 48 hours
Description: (§1) Apoptosis was measured using a Caspase-Glo3/7 Luminescence Assay Kit as per manufacturer's instructions (Promega, Corp.), as described previously ([23]). Briefly, Caspase-3/7 Glo reagent was added and incubated at room temperature for 60 minutes and caspase-3/7 activities were determined by detecting luminescence using Tecan Microplate Reader M100 (Tecan). Data were calculated as fold change from vehicle. (n = 3 biologic replicates: with three technical replicates each).

MDA-MB-468 cells [2] = experiment: Apoptosis assay (Caspase-Glo3/7); assay type: cell-based, human; details: 500 nmol/L, 48 hours
Description: as §1

GFP-HER2-BM cells [3] = experiment: Cell viability (MTT) assay; assay type: cell-based, human
Description: (§2) Using CellTiter 96 Non-Radioactive Cell Proliferation Assay (Promega, Corp.) according to manufactures’ instructions, formazan was used as an indicator of viable cells at an absorbance 570 nm in a Tecan Microplate Reader M100 (Tecan). Data were calculated as fold change from vehicle and transformed to logarithm base 10. 0 concentration was replaced with 1 nmol/L to fit using the 4-parameter logic nonlinear regression model in GraphPad Prism software. (n = 3 biologic replicates: with three technical replicates each).
(§3) All half maximal growth inhibitory concentration (GI50) values were determined by using the 4-parameter logistic curve model in GraphPad Prism 9 software. Statistical analyses were done also using GraphPad Prism 9 software, and differences were considered statistically significant at P ≤ 0.05 using ordinary one-way ANOVA or unpaired Student t test with Dunnet multiple comparison tests.

MDA-MB-231 cells [4] = experiment: Wound healing assay; assay type: cell-based, human; details: 250 nmol/L; 12 and 24 hours
Description: MDA-MB-231 cells were plated on 12-well plates at equal cell density until confluent. Then the media was changed to 1% FBS, and a single scratch was made in the center of the monolayer culture with a pipet tip. Compounds were added immediately at 250 or 500 nmol/L and images were digitally acquired from a Keyence microscope (10×) at 0, 12, and 24 hours. The scratch area was quantified in ImageJ using the Macro Wound Healing Tool (http://dev.mri.cnrs.fr/projects/imagej-macros/wiki/Wound_Healing_Tool; n = 3 biologic replicates: with three technical replicates each).

MDA-MB-231 cells [5] = experiment: Apoptosis assay (Caspase-Glo3/7); assay type: cell-based, human; details: 500 nmol/L, 48 hours
Description: as §1

HMEC cells = experiment: Cell viability (MTT) assay; assay type: cell-based, human; details: 120 hours, 0 to 1,000 nmol/L
Description: as §2

MDA-MB-468 cells [6] = experiment: Cell viability (MTT) assay; assay type: cell-based, human; details: 500 nmol/L, 72 hours
Description: as §2

Rac1B splice variant = Rac1B splice variant (Homo sapiens, UniProt P63000); experiment: Rac1B activation pulldown assay in MDA-MB-468 cells; details: MDA-MB-468, read-out: inhibition of Rac1B activation, MDA-MB-468, 500 nmol/L, 24 hours
[7] = molecular target: T1, Rac1(G15A) interaction with Vav2 (Homo sapiens, UniProt P63000, G15A); experiment: Rac1 (G15A) pulldown assay, Vav2; assay type: binding; details: for potency relative to EHop-016 (parent compound): Vav/Rac inhibitor
T1 construct: purchased Cell Biolabs; host or cells: GEF from MDA-MB-231 lysate
Description: MDA-MB-231 cells were lysed in 1% Triton X-100, 20 mmol/L HEPES, pH 7.4, 150 mmol/L NaCl, 5 mmol/L MgCl2, and protease inhibitors, and processed as described previously ([20]). Equal amounts of protein from cleared lysates were incubated for 1 hour at 4°C with glutathione-agarose beads conjugated to GST-Rac1 and GST-Cdc42(G15A) nucleotide-free mutant (Cell Biolabs) that were preincubated (for 1 hour) with vehicle or Rac/Cdc42 inhibitors, as indicated. The beads were washed, and pulldowns were immunoblotted for Vav2 or Ect2.

Rac1 [8] = molecular target: Rac1 (Homo sapiens, UniProt P63000); experiment: Rac activation pulldown assay in MDA-MB-231 cells; details: MDA-MB-231, read-out: inhibition of Rac1 activity, MDA-MB-231, 250 nmol/L, 24 hours
[9] = tested on: MDA-MB-231, GFP-HER2-BM, and MDA-MB-468 cells; experiment: Apoptosis assay (Caspase-Glo3/7), cell line not specified; assay type: cell-based, human; details: 500 nmol/L, 48 hours
Description: as §1

MDA-MB-231 cells [10] = experiment: Cell viability (MTT) assay; assay type: cell-based, human
Description: as §2, §3

MCF10A cells = experiment: Cell viability (MTT) assay; assay type: cell-based, human
Description: as §2, §3

MDA-MB-231 cells [11] = experiment: Phalloidin staining of F-actin, cell phenotype; assay type: cell-based, human; details: 250 nmol/L, 12 hours
From the text: Cells were fixed, permeabilized, and stained with rhodamine phalloidin to visualize F-actin as described previously ([23]). Fluorescence micrographs were acquired at 40× in a Keyence fluorescence microscope.

MCF7 breast cancer cells = experiment: Cell viability (MTT) assay; assay type: cell-based, human; details: 250 nmol/L, 120 hr
Description: as §2
Supplementary Figure S1. Percentage cell viability of MDA-MB-231, GFP-HER2-BM, […]
nM for 120 hr. The bar graphs are presented as individual fold change data points from vehicle and grouped mean ± SEM. (n = 3; *, P < 0.05; ** P < 0.01).
(1 picture or pasted object on this page, not shown here)

A549 lung cancer cells = experiment: EGF-induced ruffle formation; assay type: cell-based, human; details: 24 hours, then EGF 200 ng/mL
Description: Cells were fixed with 4% formaldehyde and F-actin stained with rhodamine phalloidin. Slides were visualized by fluorescence microscopy and five random fields were scored for the number of ruffles. Ruffle area was measured by thresholding for single intensity using ImageJ/Fiji software, as in ref. [29].

CYP3A4 = molecular target: T2, CYP3A4 (Homo sapiens, UniProt P08684); experiment: CyP450 enzyme assay (P450-Glo); assay type: in vitro ADME; details: recombinant human CYP enzyme, 0.001–100 μmol/L
T2 construct: purchased Promega
Description: (§4) The assay was carried out using P450-Glo Screening System (Promega). The system contained recombinant human CYP enzyme and P450 reductase (and cytochrome b5 for CYP2C9, 2C19, and 3A4), luminogenic substrates appropriate for each CYP enzyme, a NADPH regeneration system (containing NADP+), and luciferin detection reagent. […] These compounds and organic solvents acetonitrile, and DMSO were purchased from Sigma-Aldrich.
(§5) First, 12.5 μL of the 4X stock solution of test compounds or positive controls (appropriate for each enzyme) were added to the “treated” wells. For the “untreated” (the values from these wells represent total CYP activity) and “minus-P450 control” wells (the values from these wells represent the CYP-independent background luminescence of the assay), 12.5 μL of vehicle was added. Then, 12.5 μL of the 4X control reaction mixture (containing membrane preparations devoid of CYP enzymes, the appropriate luminogenic substrate, and potassium phosphate buffer) were added to the minus-P450 control wells, and 12.5 μL of the 4X reaction mixture (containing human CYP membrane preparations, the appropriate luminogenic substrate, and potassium phosphate buffer) were added to all other wells. The plates were preincubated at room temperature for 10 minutes with the reaction mixture (membrane with enzyme, substrate, and 1 mol/L potassium phosphate buffer), and then 2X NADPH regeneration system was added to initiate the reaction. After incubation at room temperature for 30 minutes, 50 μL of the Luciferin Detection Reagent was added to stop the reaction and generate the luminescent signal. Before reading, the plate was incubated at room temperature for 20 minutes to stabilize the luminescent signal. The luminescence was measured using an Infinite F200 plate reader (Tecan). […] The percentage of CYP enzyme activity versus log concentration of test compounds were plotted to calculate the IC50 values.

CYP2C9 = molecular target: T3, CYP2C9 (Homo sapiens, UniProt P11712); experiment: CyP450 enzyme assay (P450-Glo); assay type: in vitro ADME; details: recombinant human CYP enzyme, 0.001–100 μmol/L
T3 construct: purchased Promega
Description: as §4, §5

CYP2C19 = molecular target: T4, CYP2C19 (Homo sapiens, UniProt P33261); experiment: CyP450 enzyme assay (P450-Glo); assay type: in vitro ADME
T4 construct: purchased Promega
Description: as §4, §5

[12] = tested on: GFP-HER2-BM, MDA-MB-231, and MDA-MB-468 cancer cell lines; experiment: Cell viability (MTT) assay, three cancer cell lines together; assay type: cell-based, human
Description: as §2

Cdc42 = tested on: Cdc42; set-up: method as in PMID 23382385; details: read-out: IC50, Cdc42 selective inhibitor; cited from earlier work
Rac1 [13] = tested on: Rac1; set-up: method as in PMID 15128949; details: inhibits Rac1 binding and activation by the GEFs Trio and Tiam1; cited from earlier work

T4 sequence (P33261 whole entry): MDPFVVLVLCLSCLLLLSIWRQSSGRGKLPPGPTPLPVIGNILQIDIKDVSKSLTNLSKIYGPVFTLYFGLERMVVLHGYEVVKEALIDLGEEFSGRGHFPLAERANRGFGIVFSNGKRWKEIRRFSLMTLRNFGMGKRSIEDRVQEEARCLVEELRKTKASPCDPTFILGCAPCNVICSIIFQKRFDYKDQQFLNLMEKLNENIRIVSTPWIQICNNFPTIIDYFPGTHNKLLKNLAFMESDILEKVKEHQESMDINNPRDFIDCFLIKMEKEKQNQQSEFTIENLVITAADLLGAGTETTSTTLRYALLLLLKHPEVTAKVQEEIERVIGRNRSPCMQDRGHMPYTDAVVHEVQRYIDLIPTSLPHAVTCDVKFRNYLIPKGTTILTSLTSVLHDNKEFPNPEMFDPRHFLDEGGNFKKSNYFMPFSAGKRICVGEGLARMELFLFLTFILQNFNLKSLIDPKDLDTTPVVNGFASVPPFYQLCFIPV
T2 sequence (P08684 whole entry): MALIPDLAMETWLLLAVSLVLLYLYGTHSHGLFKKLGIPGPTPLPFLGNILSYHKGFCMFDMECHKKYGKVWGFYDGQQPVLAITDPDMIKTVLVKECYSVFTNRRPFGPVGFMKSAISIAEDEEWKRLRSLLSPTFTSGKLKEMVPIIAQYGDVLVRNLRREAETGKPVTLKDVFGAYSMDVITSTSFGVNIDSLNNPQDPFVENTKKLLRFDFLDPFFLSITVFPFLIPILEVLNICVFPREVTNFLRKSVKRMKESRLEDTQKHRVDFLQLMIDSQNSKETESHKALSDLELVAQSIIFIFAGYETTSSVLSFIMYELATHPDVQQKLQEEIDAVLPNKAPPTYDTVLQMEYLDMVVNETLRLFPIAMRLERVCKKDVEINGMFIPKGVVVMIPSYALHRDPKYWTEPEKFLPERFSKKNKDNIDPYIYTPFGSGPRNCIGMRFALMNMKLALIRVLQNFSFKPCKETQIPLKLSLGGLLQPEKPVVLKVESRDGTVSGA
T3 sequence (P11712 whole entry): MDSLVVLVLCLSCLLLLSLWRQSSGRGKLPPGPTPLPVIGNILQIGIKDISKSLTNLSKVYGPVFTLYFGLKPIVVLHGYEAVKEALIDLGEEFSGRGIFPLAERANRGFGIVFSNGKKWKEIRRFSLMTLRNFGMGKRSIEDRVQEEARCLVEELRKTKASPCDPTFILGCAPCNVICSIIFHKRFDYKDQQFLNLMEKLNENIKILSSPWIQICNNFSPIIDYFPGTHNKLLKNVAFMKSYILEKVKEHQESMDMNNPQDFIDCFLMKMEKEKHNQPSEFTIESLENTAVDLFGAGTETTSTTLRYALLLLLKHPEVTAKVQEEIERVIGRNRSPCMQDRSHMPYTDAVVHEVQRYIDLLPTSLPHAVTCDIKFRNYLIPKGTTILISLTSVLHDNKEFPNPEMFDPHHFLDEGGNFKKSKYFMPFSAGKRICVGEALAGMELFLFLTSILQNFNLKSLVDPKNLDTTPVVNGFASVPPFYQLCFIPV

## O=c1cc(CN2CCOCC2)occ1OCCCCCSc1ccnc2cc(C(F)(F)F)ccc12 [EHT1864]
Rac
  IC50: > 10 µM

## CCn1c2ccccc2c2cc(Nc3ccnc(NCCCN4CCOCC4)n3)ccc21 [EHop-016]
Rac; blocking the interaction of Rac with the GEF Vav
  IC50: 1.1 µM

## CCn1c2ccccc2c2cc(-n3nnc(C(O)c4cccnc4)c3-c3ccccc3)ccc21 (stereo not drawn) [EHop-040]
GFP-HER2-BM cells [1]
  Caspase-3/7 activity: significantly increased Caspase-3/7 activity
MDA-MB-468 cells [2]
  Caspase-3/7 activity: significantly increased Caspase-3/7 activity
GFP-HER2-BM cells [3]; 500 nmol/L, 72 hours
  inhibition of cell viability: 80%

## CCn1c2ccccc2c2cc(-n3nnc(C(O)c4cccc(OC)c4)c3-c3ccccc3)ccc21 (stereo not drawn) [EHop-097]
MDA-MB-231 cells [4]
  wound closure: wound area was maintained at 12 and 24 hours
GFP-HER2-BM cells [1]
  Caspase-3/7 activity: significantly increased Caspase-3/7 activity
MDA-MB-231 cells [5]
  Caspase-3/7 activity: significantly increased Caspase-3/7 activity
HMEC cells
  effect on viability of HMECs: did not affect the viability of HMECs
MDA-MB-468 cells [6]
  inhibition of cell viability: nonstatistically significant trend
Rac1B splice variant
  inhibition at 0.5 µM: ~60%
[7]; 250 nmol/L, 1 hour preincubation, MDA-MB-231 cell lysates
  Rac1(G15A) interaction with Vav2: blocked the interaction
[7]; EHop-097 at 250 nmol/L
  efficacy compared with EHop-016 at 8 μmol/L: 4 X
[7]
  potency relative to EHop-016 (parent compound): 10–30 ×
[7]; listed as Ehop-097
  potency relative to EHop-016 (parent compound): 10 ×
Rac1 [8]
  inhibition at 0.25 µM: ~85%
[9]
  caspase-3/7 activity compared with the vehicle: three to five times
GFP-HER2-BM cells [3]; 250 nmol/L, 120 hr
  inhibition of cell viability: approximately 60%
GFP-HER2-BM cells [3]; 500 nmol/L, 72 hours
  inhibition of cell viability: 80%
GFP-HER2-BM cells [3]; Homo sapiens, 120 hours, 0 to 1,000 nmol/L
  GI50: 0.261 µM
MDA-MB-231 cells [10]; 250 nmol/L, 120 hr
  inhibition of cell viability: not effective
MDA-MB-231 cells [10]; 500 nmol/L, 72 hours
  inhibition of cell viability: 50%
MDA-MB-231 cells [10]; Homo sapiens, MDA-MB-231, 120 hours, 0 to 1,000 nmol/L
  GI50: 0.327 µM
MCF10A cells; 250 nmol/L, 120 hr
  inhibition of cell viability: not effective
MCF10A cells; Homo sapiens, MCF-10A, 120 hours, 0 to 1,000 nmol/L
  GI50: 0.335 µM
MDA-MB-231 cells [11]
  cell phenotype, actin cytoskeleton: smaller and less spread but did not have the characteristic loss of polarity
MCF7 breast cancer cells
  inhibition of cell viability: not effective
A549 lung cancer cells; 500 nmol/L
  loss in ruffles: 33%
A549 lung cancer cells; 1,000 nmol/L
  decrease in ruffles: 58%

## CCn1c2ccccc2c2cc(-n3nnc(C(O)c4ccco4)c3-c3ccccc3)ccc21 (stereo not drawn) [EHop-098]
GFP-HER2-BM cells [3]; 500 nmol/L, 72 hours
  inhibition of cell viability: 80%

## CCn1c2ccccc2c2cc(-n3nncc3-c3cccc(C)c3)ccc21 [MBQ-169]
GFP-HER2-BM cells [1]
  Caspase-3/7 activity: significantly increased Caspase-3/7 activity
CYP3A4
  IC50: 3.31 µM
CYP2C9
  IC50: 0.87 µM
CYP2C19
  CYP2C19 IC50, fold lower than the IC50 for the positive control: approximately 6 fold
CYP2C19; human, recombinant human CYP enzyme, 0.001–100 μmol/L
  IC50 at 30 min: 0.58 µM
GFP-HER2-BM cells [3]; 500 nmol/L, 72 hours
  inhibition of cell viability: approximately 75%

## CCn1c2ccccc2c2cc(-n3nncc3-c3ccccn3)ccc21 [MBQ-170]
MDA-MB-231 cells [4]
  wound closure: wound was closed in 24 hours
[12]
  effect on viability of cancer cells: did not affect the viability of cancer cells

## CCn1c2ccccc2c2cc(-n3nncc3-c3cccnc3)ccc21 [MBQ-171]
CYP3A4
  IC50: 8.04 µM
CYP2C9
  IC50: 1.55 µM
CYP2C19; recombinant human CYP enzyme, 0.001–100 μmol/L
  IC50: 12.4 µM
GFP-HER2-BM cells [3]; 500 nmol/L, 72 hours
  inhibition of cell viability: approximately 75%

## COc1ccc(C2=NN(c3ccc(S(N)(=O)=O)cc3)C(c3ccccc3)C2)cc1 (stereo not drawn) [ML141]
Cdc42
  IC50: 3 to 5 µM

## O=C(C#Cc1ccccc1)c1cccc([N+](=O)[O-])c1 [MLS000532223]
Rac
  IC50: > 10 µM
